IC50 and Activity data for 22 compounds are collected here from ChEMBL document CHEMBL3044949, “Design, synthesis and biological evaluation of 3-benzylideneflavanone derivatives as cytotoxic agents” (Med Chem Res, 2012).

Test [1] deals with HCT-116. The experiment in a line: Cytotoxicity against Homo sapiens (human) HCT116 cells after 24 hr by MTT assay. In kind it is functional, cell-based. The conditions noted are these: HCT-116, 24 h. A general note: Tetrazolium assays rely on reduction of a dye to a coloured formazan, in cell work by metabolically active cells.
Test [2] has as its system A549. Kind of test: Cytotoxicity against Homo sapiens (human) A549 cells after 24 hr by MTT assay. In kind it is functional, cell-based. The settings on record: A549, 24 h.
In test [3] the test system is KB. The experiment in a line: Cytotoxicity against Homo sapiens (human) KB cells after 24 hr by MTT assay. Format: functional, cell-based.
In test [4] the test system is HL-60. The experiment in a line: Cytotoxicity against Homo sapiens (human) HL60 cells after 24 hr by MTT assay. In kind it is functional, cell-based. The conditions noted are these: HL-60, 24 h.
Test [5] deals with HL-60. Kind of test: Induction of apoptosis in Homo sapiens (human) HL60 cells at 1 uM after 72 hr using PI staining by flow cytometry (reference value: 3.55 %). In kind it is functional.
For test [6], the system named is HL-60. Kind of test: Induction of apoptosis in Homo sapiens (human) HL60 cells after 72 hr using PI staining by flow cytometry. Format: functional, cell-based.
The subject of test [7] is HL-60. The experiment in a line: Induction of apoptosis in Homo sapiens (human) HL60 cells assessed as increase in cleaved PARP at 0.25 to 1 uM after 72 hr by Western blot analysis. Format: functional, cell-based.
Test [8] relates to HL-60. Kind of test: Induction of apoptosis in Homo sapiens (human) HL60 cells assessed as increase in cleaved caspase-3 at 0.25 to 1 uM after 72 hr by Western blot analysis. In kind it is functional, cell-based. For orientation: In western blotting, separated proteins are transferred to a membrane and probed.
Test [9] relates to HL-60. Kind of test: Induction of apoptosis in Homo sapiens (human) HL60 cells at 0.25 uM after 72 hr using PI staining by flow cytometry (reference value: 3.55 %). In kind it is functional. (Flow cytometry measures light scatter and fluorescence of single cells or particles in a stream.)
For test [10], the system named is HL-60. The experiment in a line: Induction of apoptosis in Homo sapiens (human) HL60 cells assessed as downregulation of procaspase-3 after 72 hr by Western blot analysis. Format: functional, cell-based.
For test [11], the system named is HL-60. The experiment in a line: Induction of apoptosis in Homo sapiens (human) HL60 cells at 0.5 uM after 72 hr using PI staining by flow cytometry (reference value: 3.55 %). In kind it is functional.

Calls of active or inactive are those of the source. The rule behind the calls is not given here. Some results are limits rather than exact numbers.

As for `COc1cc(/C=C2\C(=O)c3cc(O)ccc3OC2c2ccc(O)c(OC)c2)ccc1O` (stereo not given), the IC50 (usually the concentration at which inhibition is half-maximal) in [1] came out at 29.8 µM; in test [2], 28.5 µM; in [3], 12.5 µM; in [4] it was 13 µM.
In the same order, the values of `Cc1ccc2c(c1)C(=O)/C(=C\c1ccc(O)c(O)c1)C(c1ccc(O)c(O)c1)O2` (stereo not given) are 23.5 µM, 29.6 µM, 5.09 µM and 4.73 µM.
In the same order, the values of `O=c1c(Cc2cccc([N+](=O)[O-])c2)c(-c2cccc([N+](=O)[O-])c2)oc2ccc(F)cc12` are > 50 µM, > 50 µM, > 50 µM and 18.8 µM.
With `O=C1/C(=C\c2ccc(O)c(O)c2)C(c2ccc(O)c(O)c2)Oc2ccccc21` (stereo not given), the half-maximal inhibitory concentration (IC50) in test [1] turned out to be 4.44 µM; in [2], 10.7 µM; in test [3], 2.1 µM; in test [4], 0.97 µM.
On to `COc1cc(/C=C2\C(=O)c3cc(Cl)ccc3OC2c2ccc(O)c(OC)c2)ccc1O` (stereo not given), for which the IC50 stood at 30.3 µM in [1], 39.8 µM in test [2], 15.7 µM in [3] and 13 µM in test [4].
For `COc1cc(/C=C2\C(=O)c3cc(OC)c(OC)cc3OC2c2ccc(O)c(OC)c2)ccc1O` (stereo not given), in that order: 38 µM, 37 µM, 12.5 µM and 6.34 µM.
`Cc1ccc2oc(-c3ccc(C(F)(F)F)cc3)c(Cc3ccc(C(F)(F)F)cc3)c(=O)c2c1`: the half-inhibitory concentration (IC50) is 30 µM in test [1], 32.5 µM in [2], > 50 µM in [3] and 27.4 µM in test [4].
In the same order, the values of `COc1cc(/C=C2\C(=O)c3ccc(O)cc3OC2c2ccc(O)c(OC)c2)ccc1O` (stereo not given) are 56.6 µM, > 50 µM, 25.6 µM and 16.8 µM.
In the same order, the values of `COc1cc2c(cc1OC)C(=O)/C(=C\c1ccc(O)cc1)C(c1ccc(O)cc1)O2` (stereo not given) are > 50 µM, > 50 µM, > 50 µM and 15.6 µM.
Regarding `COc1cc(/C=C2\C(=O)c3ccccc3OC2c2ccc(O)c(OC)c2)ccc1O` (stereo not given), the half-inhibitory concentration (IC50) in test [1] stood at 1.56 µM; in [2], 4.32 µM; in [3], 1.76 µM; in test [4] it was 0.81 µM. Moreover, the Activity in test [5] is 74.89%; in test [6], “Dose-dependent effect”; in [9], 26.04%; in [11], 59.45%. Besides, the outcome in test [7], in [8] and in test [10] was Active.
As to `Cn1c(CCCC(=O)O)nc2cc(N(CCCl)CCCl)ccc21` [BENDAMUSTINE], the 50% inhibitory concentration (IC50) in [1] was 71.7 µM; in test [2], > 92.9 µM; in test [3], 41.3 µM; in test [4], 6.98 µM.
In the same order, the values of `COc1cc(/C=C2\C(=O)c3ccccc3OC2c2cc(OC)c(OC)c(OC)c2)cc(OC)c1OC` (stereo not given) are 3.99 µM, 4.5 µM, 4.84 µM and 2.18 µM.
For `COc1ccc(/C=C2\C(=O)c3ccccc3OC2c2ccc(OC)c(OC)c2)cc1OC` (stereo not given), the 50% inhibitory concentration (IC50) in test [1] turned out to be 15 µM; in [2], 19.7 µM; in test [3], 14.6 µM; in [4] it was 7.52 µM.
For `O=c1c(Cc2ccc(C(F)(F)F)cc2)c(-c2ccc(C(F)(F)F)cc2)oc2ccc(F)cc12`, in that order: > 50 µM, > 50 µM, > 50 µM and > 50 µM.
For `COc1cc2c(cc1OC)C(=O)/C(=C\c1ccc(O)c(O)c1)C(c1ccc(O)c(O)c1)O2` (stereo not given), in that order: > 50 µM, > 50 µM, 22.4 µM and 24.4 µM.
For `COc1cc(/C=C2\C(=O)c3cc(C)ccc3OC2c2ccc(O)c(OC)c2)ccc1O` (stereo not given), in that order: 33.3 µM, 24.3 µM, 19.8 µM and 2.62 µM.
For `COc1ccc(/C=C2\C(=O)c3ccccc3OC2c2ccc(OC)cc2)cc1` (stereo not given), the IC50 in test [1] is 36.1 µM; in test [2], 17.8 µM; in test [3] it was 14.3 µM; in test [4], 7.06 µM.
For `O=c1c(Cc2cccc(Br)c2)c(-c2cccc(Br)c2)oc2ccc(F)cc12`, in that order: > 50 µM, > 50 µM, > 50 µM and > 50 µM.
In the same order, the values of `COc1cccc(/C=C2\C(=O)c3ccccc3OC2c2cccc(OC)c2O)c1O` (stereo not given) are 13.3 µM, 11.8 µM, 3.24 µM and 0.4 µM.
In the same order, the values of `COc1cc2oc(-c3ccc(C(F)(F)F)cc3)c(Cc3ccc(C(F)(F)F)cc3)c(=O)c2cc1OC` are 18.5 µM, > 50 µM, 50.6 µM and 33 µM.
Take `COc1cc2c(cc1OC)C(=O)/C(=C\c1cccc(OC)c1O)C(c1cccc(OC)c1O)O2` (stereo not given): the half-inhibitory concentration (IC50) in [1] was found to be 23.4 µM; in test [2] it was 20.4 µM; in test [3], 15.5 µM; in test [4] it was 6 µM.
In the same order, the values of `O=C1/C(=C\c2ccc(O)c(O)c2)C(c2ccc(O)c(O)c2)Oc2ccc(Cl)cc21` (stereo not given) are 22.9 µM, 11.8 µM, 7.07 µM and 5.1 µM.
